PubChem BioAssay (NCI)
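Five concentrations, 48 hours, 96-well plates. GI50 is the concentration that inhibits growth by half. TGI is the concentration that stops growth completely.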

Legend:
Experiment in all cases: NCI tumour cell line growth inhibition, 48 h
[1] = system: RXF 393 renal
[2] = system: SF-268 CNS
[3] = system: HCT-15 colon
[4] = system: DU-145 prostate
[5] = system: OVCAR-4 ovarian
[6] = system: SK-MEL-2 melanoma
[7] = system: UACC-257 melanoma
[8] = system: HOP-92 NSCLC
[9] = system: HS 578T breast
[10] = system: HL-60(TB) leukemia
[11] = system: LOX IMVI melanoma
[12] = system: SK-MEL-28 melanoma
[13] = system: A549 NSCLC
[14] = system: SN12C renal
[15] = system: EKVX NSCLC
[16] = system: HOP-62 NSCLC
[17] = system: PC-3 prostate
[18] = system: NCI-H226 lung
[19] = system: A498 renal
[20] = system: HT29 colon
[21] = system: K-562 leukemia
[22] = system: SNB-19 CNS
[23] = system: T-47D breast
[24] = system: KM12 colon
[25] = system: HCC-2998 colon
[26] = system: SR leukemia
[27] = system: MALME-3M melanoma
[28] = system: SNB-75 CNS
[29] = system: MDA-MB-231 breast
[30] = system: NCI-H460 lung
[31] = system: NCI/ADR-RES ovarian
[32] = system: COLO 205 colon
[33] = system: 786-0 renal
[34] = system: CCRF-CEM leukemia
[35] = system: MCF7 breast
[36] = system: BT-549 breast
[37] = system: UACC-62 melanoma
[38] = system: NCI-H522 lung
[39] = system: MDA-MB-435
[40] = system: ACHN renal
[41] = system: M14 melanoma
[42] = system: U251 CNS
[43] = system: HCT-116 colon
[44] = system: OVCAR-8 ovarian
[45] = system: CAKI-1 renal
[46] = system: OVCAR-5 ovarian
[47] = system: OVCAR-3 ovarian
[48] = system: SW-620 colon
[49] = system: TK-10 renal
[50] = system: SF-539 CNS
[51] = system: SK-OV-3 ovarian
[52] = system: RPMI-8226 leukemia
[53] = system: SK-MEL-5 melanoma
[54] = system: UO-31 renal
[55] = system: IGROV1 ovarian
[56] = system: SF-295 CNS
[57] = system: NCI-H23 lung
[58] = system: MOLT-4 leukemia

Question: How did the GI50 [1] turn out when `O=C(NNc1nc2cc(F)ccc2n2c(CN3CC4(COC4)C3)ccc12)c1cnccn1` was run?
Answer: Its GI50 is 2.29 µM.

Question: And the TGI [1]?
Answer: The TGI was 13.7 µM.

Question: What about the GI50 [2] of the same molecule?
Answer: Its GI50 is 0.616 µM.

Question: And the TGI [2]?
Answer: Its TGI is over 100 µM.

Question: And the GI50 [3]?
Answer: The GI50 was 0.188 µM.

Question: And the TGI [3]?
Answer: Its TGI is 26.3 µM.

Question: And the GI50 [4]?
Answer: The GI50 was 1.18 µM.

Question: What about the TGI [4] of the same molecule?
Answer: The TGI was over 82.4 µM.

Question: What about the GI50 [5] of the same molecule?
Answer: The GI50 was 0.49 µM.

Question: And the TGI [5]?
Answer: Its TGI is over 39.1 µM.

Question: What about the GI50 [6] of the same molecule?
Answer: Its GI50 is 2.19 µM.

Question: What about the TGI [6] of the same molecule?
Answer: The TGI was 14.7 µM.

Question: What about the GI50 [7] of the same molecule?
Answer: The GI50 was 1.72 µM.

Question: What about the TGI [7] of the same molecule?
Answer: The TGI was 8.07 µM.

Question: What about the GI50 [8] of the same molecule?
Answer: Its GI50 is 0.983 µM.

Question: And the TGI [8]?
Answer: The TGI was 23.3 µM.

Question: What about the GI50 [9] of the same molecule?
Answer: Its GI50 is 3.04 µM.

Question: And the TGI [9]?
Answer: Its TGI is over 95.2 µM.

Question: What about the GI50 [10] of the same molecule?
Answer: The GI50 was 0.469 µM.

Question: What about the TGI [10] of the same molecule?
Answer: Its TGI is 12.9 µM.

Question: And the GI50 [11]?
Answer: Its GI50 is 0.557 µM.

Question: And the TGI [11]?
Answer: Its TGI is 9.72 µM.

Question: And the GI50 [12]?
Answer: Its GI50 is 0.861 µM.

Question: What about the TGI [12] of the same molecule?
Answer: The TGI was 25.1 µM.

Question: What about the GI50 [13] of the same molecule?
Answer: Its GI50 is 0.611 µM.

Question: What about the TGI [13] of the same molecule?
Answer: The TGI was 32.7 µM.

Question: What about the GI50 [14] of the same molecule?
Answer: Its GI50 is 0.952 µM.

Question: What about the TGI [14] of the same molecule?
Answer: Its TGI is 33.5 µM.

Question: And the GI50 [15]?
Answer: Its GI50 is 0.438 µM.

Question: And the TGI [15]?
Answer: Its TGI is 30 µM.

Question: What about the GI50 [16] of the same molecule?
Answer: The GI50 was 0.442 µM.

Question: What about the TGI [16] of the same molecule?
Answer: Its TGI is 22.1 µM.

Question: And the GI50 [17]?
Answer: The GI50 was 0.719 µM.

Question: What about the TGI [17] of the same molecule?
Answer: The TGI was 31.4 µM.

Question: And the GI50 [18]?
Answer: The GI50 was 1.05 µM.

Question: And the TGI [18]?
Answer: The TGI was 10.8 µM.

Question: And the GI50 [19]?
Answer: The GI50 was 16.7 µM.

Question: What about the TGI [19] of the same molecule?
Answer: Its TGI is 34 µM.

Question: And the GI50 [20]?
Answer: Its GI50 is 0.499 µM.

Question: What about the TGI [20] of the same molecule?
Answer: The TGI was 16.8 µM.

Question: And the GI50 [21]?
Answer: Its GI50 is 0.502 µM.

Question: And the TGI [21]?
Answer: Its TGI is over 100 µM.

Question: And the GI50 [22]?
Answer: The GI50 was 0.854 µM.

Question: And the TGI [22]?
Answer: The TGI was over 100 µM.

Question: What about the GI50 [23] of the same molecule?
Answer: Its GI50 is 0.558 µM.

Question: And the TGI [23]?
Answer: The TGI was 22.3 µM.

Question: And the GI50 [24]?
Answer: Its GI50 is 0.579 µM.

Question: And the TGI [24]?
Answer: The TGI was over 64.2 µM.

Question: And the GI50 [25]?
Answer: Its GI50 is 0.709 µM.

Question: What about the TGI [25] of the same molecule?
Answer: The TGI was over 45.9 µM.

Question: And the GI50 [26]?
Answer: Its GI50 is 0.409 µM.

Question: And the TGI [26]?
Answer: Its TGI is over 100 µM.

Question: What about the GI50 [27] of the same molecule?
Answer: The GI50 was 1.6 µM.

Question: And the TGI [27]?
Answer: Its TGI is 11.9 µM.

Question: And the GI50 [28]?
Answer: Its GI50 is 0.756 µM.

Question: And the TGI [28]?
Answer: The TGI was 11 µM.

Question: What about the GI50 [29] of the same molecule?
Answer: Its GI50 is 0.696 µM.

Question: And the TGI [29]?
Answer: Its TGI is 19.5 µM.

Question: What about the GI50 [30] of the same molecule?
Answer: Its GI50 is 0.259 µM.

Question: And the TGI [30]?
Answer: Its TGI is 11.6 µM.

Question: And the GI50 [31]?
Answer: Its GI50 is 0.386 µM.

Question: What about the TGI [31] of the same molecule?
Answer: The TGI was 9.97 µM.

Question: And the GI50 [32]?
Answer: Its GI50 is 0.401 µM.

Question: What about the TGI [32] of the same molecule?
Answer: Its TGI is 16.3 µM.

Question: And the GI50 [33]?
Answer: Its GI50 is 0.458 µM.

Question: And the TGI [33]?
Answer: Its TGI is 11.2 µM.

Question: And the GI50 [34]?
Answer: The GI50 was 0.281 µM.

Question: And the TGI [34]?
Answer: The TGI was over 70.4 µM.

Question: What about the GI50 [35] of the same molecule?
Answer: The GI50 was 0.596 µM.

Question: What about the TGI [35] of the same molecule?
Answer: Its TGI is 9.81 µM.

Question: And the GI50 [36]?
Answer: Its GI50 is 0.907 µM.

Question: What about the TGI [36] of the same molecule?
Answer: Its TGI is 9.22 µM.

Question: What about the GI50 [37] of the same molecule?
Answer: Its GI50 is 0.406 µM.

Question: And the TGI [37]?
Answer: Its TGI is 1.96 µM.

Question: What about the GI50 [38] of the same molecule?
Answer: The GI50 was 0.497 µM.

Question: And the TGI [38]?
Answer: The TGI was 5.5 µM.

Question: And the GI50 [39]?
Answer: The GI50 was 1.3 µM.

Question: And the TGI [39]?
Answer: Its TGI is over 47.5 µM.

Question: What about the GI50 [40] of the same molecule?
Answer: Its GI50 is 0.233 µM.

Question: And the TGI [40]?
Answer: The TGI was 11.7 µM.

Question: What about the GI50 [41] of the same molecule?
Answer: The GI50 was 0.451 µM.

Question: What about the TGI [41] of the same molecule?
Answer: The TGI was 3.53 µM.

Question: What about the GI50 [42] of the same molecule?
Answer: Its GI50 is 0.395 µM.

Question: And the TGI [42]?
Answer: Its TGI is over 53.1 µM.

Question: What about the GI50 [43] of the same molecule?
Answer: The GI50 was 0.373 µM.

Question: And the TGI [43]?
Answer: Its TGI is 13.3 µM.

Question: And the GI50 [44]?
Answer: The GI50 was 0.404 µM.

Question: And the TGI [44]?
Answer: Its TGI is 16.3 µM.

Question: And the GI50 [45]?
Answer: The GI50 was 0.33 µM.

Question: What about the TGI [45] of the same molecule?
Answer: The TGI was 13.2 µM.

Question: And the GI50 [46]?
Answer: Its GI50 is 1.16 µM.

Question: And the TGI [46]?
Answer: The TGI was 34.3 µM.

Question: What about the GI50 [47] of the same molecule?
Answer: The GI50 was 0.65 µM.

Question: And the TGI [47]?
Answer: Its TGI is 22.7 µM.

Question: What about the GI50 [48] of the same molecule?
Answer: The GI50 was 0.62 µM.

Question: What about the TGI [48] of the same molecule?
Answer: The TGI was over 56.3 µM.

Question: What about the GI50 [49] of the same molecule?
Answer: The GI50 was 0.263 µM.

Question: And the TGI [49]?
Answer: Its TGI is 23.2 µM.

Question: And the GI50 [50]?
Answer: The GI50 was 0.675 µM.

Question: What about the TGI [50] of the same molecule?
Answer: Its TGI is 8.97 µM.

Question: And the GI50 [51]?
Answer: The GI50 was 0.548 µM.

Question: And the TGI [51]?
Answer: The TGI was 9.88 µM.

Question: What about the GI50 [52] of the same molecule?
Answer: Its GI50 is 0.689 µM.

Question: What about the TGI [52] of the same molecule?
Answer: Its TGI is 28.1 µM.

Question: What about the GI50 [53] of the same molecule?
Answer: The GI50 was 0.673 µM.

Question: And the TGI [53]?
Answer: The TGI was 5.33 µM.

Question: And the GI50 [54]?
Answer: Its GI50 is 0.114 µM.

Question: What about the TGI [54] of the same molecule?
Answer: Its TGI is 5.71 µM.

Question: What about the GI50 [55] of the same molecule?
Answer: The GI50 was 0.717 µM.

Question: And the TGI [55]?
Answer: Its TGI is 18.9 µM.

Question: What about the GI50 [56] of the same molecule?
Answer: The GI50 was 0.319 µM.

Question: And the TGI [56]?
Answer: The TGI was 12.2 µM.

Question: And the GI50 [57]?
Answer: Its GI50 is 1.78 µM.

Question: What about the TGI [57] of the same molecule?
Answer: The TGI was 41.8 µM.

Question: What about the GI50 [58] of the same molecule?
Answer: Its GI50 is 0.443 µM.

Question: What about the TGI [58] of the same molecule?
Answer: Its TGI is over 75.6 µM.
